Reference: the supplement of paper PMC10307832

How the values were obtained:
Test in all cases: relative viability (nuclei count vs DMSO), 5 days (fraction); higher = more cells survive
Entinostat + Decitabine = compound: Nc1ccccc1NC(=O)c1ccc(CNC(=O)OCc2cccnc2)cc1 [Entinostat] + Nc1ncn([C@H]2C[C@H](O)[C@@H](CO)O2)c(=O)n1 [Decitabine] (partner 2 µM)
Procedure, shortened: (§1)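 Dosing by pin tool came one day after lung cancer cell lines were seeded in 1536-well plates, using either one drug or a fixed anchor-drug dose plus five library-drug doses (not always all listed) in √10 steps. After 5 days, nuclei were counted on 4× images. Relative viability is treated-well nuclei count divided by vehicle-well nuclei count, and values are medians of duplicate plates.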

[1] = compound: C1COCCN1C2=NC(=NC3=C2OC4=C3C=CC=N4)C5=CC(=CC=C5)NC(=O)C6=CN=C(C=C6)N + Cc1cc(Nc2cc(N3CCN(C)CC3)nc(Sc3ccc(NC(=O)C4CC4)cc3)n2)n[nH]1 [Tozasertib] (partner 0.1 µM)
Procedure, shortened: as §1

Entinostat + Linsitinib = compound: Nc1ccccc1NC(=O)c1ccc(CNC(=O)OCc2cccnc2)cc1 [Entinostat] + C[C@]1(O)C[C@@H](c2nc(-c3ccc4ccc(-c5ccccc5)nc4c3)c3c(N)nccn32)C1 [Linsitinib] (partner 1 µM)
Procedure, shortened: as §1

SGI-1776 + OSI-027 = compound: CN1CCC(CNc2ccc3ncc(-c4cccc(OC(F)(F)F)c4)n3n2)CC1 [SGI-1776] + COc1cccc2cc(-c3nc([C@H]4CC[C@H](C(=O)O)CC4)n4ncnc(N)c34)[nH]c12 [OSI-027] (partner 0.5 µM)
Procedure, shortened: as §1

| Cell Line | relative viability (Entinostat + Decitabine; first compound 0.02 µM) | relative viability (Entinostat + Decitabine; first compound 0.06325 µM) | relative viability (Entinostat + Decitabine; first compound 0.2 µM) | relative viability (Entinostat + Decitabine; first compound 0.6325 µM) | relative viability (Entinostat + Decitabine; first compound 2 µM) | relative viability ([1]; first compound 0.02 µM) | relative viability ([1]; first compound 0.06325 µM) | relative viability ([1]; first compound 0.2 µM) | relative viability ([1]; first compound 0.6325 µM) | relative viability ([1]; first compound 2 µM) | relative viability (Entinostat + Linsitinib; first compound 0.02 µM) | relative viability (Entinostat + Linsitinib; first compound 0.06325 µM) | relative viability (Entinostat + Linsitinib; first compound 0.2 µM) | relative viability (Entinostat + Linsitinib; first compound 0.6325 µM) | relative viability (Entinostat + Linsitinib; first compound 2 µM) | relative viability (SGI-1776 + OSI-027; first compound 0.08 µM) | relative viability (SGI-1776 + OSI-027; first compound 0.8 µM) | relative viability (SGI-1776 + OSI-027; first compound 2.53 µM) | relative viability (SGI-1776 + OSI-027; first compound 8 µM) |
| --- | --- | --- | --- | --- | --- | --- | --- | --- | --- | --- | --- | --- | --- | --- | --- | --- | --- | --- | --- |
| RERF-LC-KJ | 0.712 | 0.685 | 0.663 | 0.369 | 0.285 | 0.594 | 0.577 | 0.35 | 0.327 | 0.326 | 0.912 | 0.766 | 0.885 | 0.536 | 0.239 | 0.592 | 0.52 | 0.507 | 0.305 |
| CAL-12T |  |  |  |  |  | 0.325 | 0.27 | 0.206 | 0.24 | 0.177 | 0.838 | 0.815 | 0.814 | 0.909 | 0.392 | 0.771 | 0.592 | 0.652 | 0.481 |
| COR-L 105 | 0.64 | 0.641 | 0.595 | 0.466 | 0.337 | 0.325 | 0.352 | 0.329 | 0.359 | 0.31 | 1.01 | 0.974 | 0.876 | 0.491 | 0.341 | 0.746 | 0.716 | 0.658 | 0.38 |
| NCI-H2405 | 0.693 | 0.784 | 0.686 | 0.501 | 0.511 | 0.762 | 0.75 | 0.715 | 0.73 | 0.607 | 0.977 | 1.11 | 1.04 | 0.896 | 0.789 | 0.643 | 0.659 | 0.549 | 0.568 |
| NCI-H2228 |  |  |  |  |  | 0.227 | 0.204 | 0.193 | 0.213 | 0.186 | 0.587 | 0.635 | 0.578 | 0.365 | 0.354 | 0.644 | 0.582 | 0.425 | 0.275 |
| PC-14 | 0.248 | 0.184 | 0.189 | 0.109 | 0.0779 | 0.593 | 0.651 | 0.566 | 0.486 | 0.307 | 1.03 | 0.947 | 1.03 | 0.364 | 0.16 | 0.857 | 0.945 | 0.671 | 0.0734 |
| IA-LM |  |  |  |  |  |  |  |  |  |  | 0.645 | 0.774 | 0.785 | 0.628 | 0.543 |  |  |  |  |
| A549 | 0.27 | 0.251 | 0.205 | 0.177 | 0.0922 |  |  |  |  |  | 0.595 | 0.646 | 0.627 | 0.648 | 0.602 |  |  |  |  |
| NCI-H2342 | 0.806 | 0.704 | 0.65 | 0.607 | 0.557 | 0.505 | 0.483 | 0.458 | 0.405 | 0.451 |  |  |  |  |  | 0.671 | 0.671 | 0.552 | 0.622 |
| NCI-H1623 |  |  |  |  |  | 0.376 | 0.457 | 0.411 | 0.432 | 0.461 |  |  |  |  |  | 0.459 | 0.416 | 0.502 | 0.427 |
| SW 1573 | 0.526 | 0.46 | 0.486 | 0.311 | 0.22 | 0.207 | 0.159 | 0.175 | 0.188 | 0.152 | 0.721 | 0.93 | 0.811 | 0.884 | 0.609 | 0.673 | 0.715 | 0.631 | 0.391 |
